This is an account of results in article PMC9037180, “Ligand-based design and synthesis of N'-Benzylidene-3,4-dimethoxybenzohydrazide derivatives as potential antimicrobial agents; evaluation by in vitro, in vivo, and in silico approaches with SAR studies” (Journal of Enzyme Inhibition and Medicinal Chemistry, 2022).

The test system of one data set is C. albicans MTCC183. As to the kind of experiment: Minimal inhibitory concentration (MIC), broth dilution. It counts as cell-based. From the text:
In vitro evaluation for antifungal activities regarding target compounds (4a–j) as well as reference drug, was done against C. albicans MTCC183 through the zone inhibition technique using well diffusion agar assay in addition to MIC.
A general note: In broth dilution the organism is exposed to a series of concentrations in liquid medium.

Another data set deals with A. baumanii ATCC 19606. Described as above.
The next data set concerns P. aeruginosa ATCC10145. Described as above.
A further data set has as its system E. faecalis ATCC 29212. The description is as above.
For the next data set, the system named is Acientobacter sensitive. Described as above.
The test system of the next data set is S. aureus. As to the kind of experiment: Minimal bactericidal concentration (MBC). It is filed as cell-based. How it is done:
(§1) After determining the MIC for the target compounds, the minimal bactericidal concentration (MBC) for each compound that is required to kill each one of the above-mentioned microorganisms was assessed.

The next data set deals with E. coli. Description: Minimal bactericidal concentration (MBC). It counts as cell-based. How it is done: as §1
The next data set has as its system Aciento MDR. As to the kind of experiment: Minimal inhibitory concentration (MIC), broth dilution.
Data set [1] is described as follows: H&E histological examination of liver and kidney, uninfected treated rats. It counts as in vivo. As to conditions: for liver histological structure (H&E): 1.9 and 3.8 mg/kg IP daily for one week; for kidney histological structure (H&E): low dose and high dose (1.9 and 3.8 mg/kg IP). How it is done: (§2) Rats were divided randomly into equal fifteen groups, each containing 9 rats as follows: • Group 1: Rats were kept on standard laboratory chow and water ad libitum to serve as a control. • Group 2: Rats have injected IP with sterile distilled water (4ml/kg) daily for one week to serve as a control. • Group 3: Rats have injected IP with DEMSO (dimethyl sulfoxide) (4 ml/kg) daily for one week to serve as a control. • Group 4: Rats have injected IP with 4h (1.9 mg/kg) daily for one week. • Group 5: Rats have injected IP with 4h (3.8 mg/kg) daily for one week. • Group 6: Rats have injected IP with 4i (1.9 mg/kg) daily for one week. • Group 7: Rats have injected IP with 4i (3.8 mg/kg) daily for one week. • Group 8: Rats were infected by a single IM injection of S. aureus strain [1.0 ml) 1 × 10^7) colony-forming units]. • Group 9: Rats have injected IP with 4h (1.9 mg/kg) daily for one week on the 7th day after induction of infection by a single IM injection of S. aureus strain [1.0 ml (1 × 10^7) colony-forming units. • Group 10: Rats have injected IP with 4h (3.8 mg/kg) daily for one week on the 7th day after induction of infection by a single IM injection of S. aureus strain [1.0 ml (1 × 10^7) colony-forming units]. • Group 11: Rats were infected by a single IM injection of S. typhi strain [1.0 ml (1 × 10^7) colony forming units). • Group 12: Rats have injected IP with 4h (1.9 mg/kg) daily for one week. on the 7th day after induction of infection by a single IM injection of S. typhi strain [1.0 ml (1 × 10^7) colony-forming units]. • Group 13: Rats have injected IP with 4h (3.8 mg/kg) daily for one week on the 7th day after infection by a single IM injection of S. typhi strain [1.0 ml (1 × 10^7) colony-forming units]. • Group 14: Rats have injected IP with 4i (1.9 mg/kg) daily for one week. on the 7th day after induction of infection by a single IM injection of S. typhi strain [1.0 ml (1 × 10^7) colony-forming units]. • Group 15: Rats have injected IP with 4i (3.8 mg/kg) daily for one week. on the 7th day after induction of infection by a single IM injection of Salmonella strain [1.0 ml (1 × 10^7) colony-forming units].
(§3) At the end of the experiment, the animals were euthanized through cervical dislocation. After that, the liver and kidney were dissected for histological study. The procedure for histological preparations was described by Bancroft and Stevens[73]. Briefly, liver and kidney tissues were sliced to 3–4 mm thick, fixed in 10% neutral buffered formalin (10% NBF), dehydrated in graded concentrations of ethanol, cleared in xylene, and embedded in paraffin. The paraffin blocks were sectioned with a microtome at (4–6 μm) thickness and dyed with H & E stain to study the general tissue structure.

Data set [2] relates to E. faecalis, Acientobacter, P. auriginosa, S. aureus, S. typhi, E. coli, C. albicans. Description: Average MIC over the nine tested microbial species (SAR). It is filed as cell-based. As to conditions: for antimicrobial activity (SAR grading): based on MIC average values. The text has this: Herein, we aimed to study the structure-antimicrobial activity relationship of the newly synthesised N'-benzylidene-3,4-dimethoxybenzohydrazide derivatives based on MIC average values[51]^,[52] as represented in the supplementary data (Table SI1). Thereby, the changes in their antimicrobial potential and spectrum upon structural modifications could be unveiled, thus offering clues for structural changes that are capable of increasing the antimicrobial potential.

The next data set has as its system S. typhi. Description: H&E histological examination of liver and kidney, S. typhi infected rats. It is filed as in vivo. How it is done:
as §2, §3

In a further data set the test system is E. coli ATCC 25922. Description: Minimal inhibitory concentration (MIC), broth dilution.
A further data set has as its system S. aureus ATCC 6538. Described as above.
Data set [3] deals with S. typhi clinical isolate. Described as above. It counts as cell-based.

In brackets after ≈: the same amount, converted by molar mass. Like-named read-outs stand apart in the source and are kept apart here.

Usually MIC stands for the smallest concentration in the dilution series that meets the test's criterion for growth inhibition. Usually MBC stands for the lowest tested concentration that kills the bacteria rather than only halting them. Low readings indicate more potent killing, high ones less potent killing. For `COc1ccc(C(=O)NN=Cc2ccc3ccccc3n2)cc1OC` [Compound 4i, N'-(quinolin-2-ylmethylene)-3,4-dimethoxybenzohydrazide], the MIC with C. albicans MTCC183 (Candida albicans, MTCC183) is 23.3 µM (≈ 7.81 µg/mL); with A. baumanii ATCC 19606 (Acinetobacter baumannii, ATCC19606), 11.6 µM (≈ 3.9 µg/mL); against P. aeruginosa ATCC10145 (Pseudomonas aeruginosa, ATCC10145) it was 186 µM (≈ 62.5 µg/mL); against E. faecalis ATCC 29212 (Enterococcus faecalis, ATCC29212) it was 93.4 µM (≈ 31.3 µg/mL); in the data set with Acientobacter sensitive (Acinetobacter baumannii), 46.5 µM (≈ 15.6 µg/mL); in the data set on Aciento MDR (Acinetobacter baumannii), 373 µM (≈ 125 µg/mL). In addition, the MIC in data set [2] (read-out: Average MIC) came to 99.7 µM (≈ 33.4 µg/mL); against E. coli ATCC 25922 (Escherichia coli, ATCC25922), 23.3 µM (≈ 7.81 µg/mL); in the data set on S. aureus ATCC 6538 (Staphylococcus aureus, ATCC6538) it was 46.5 µM (≈ 15.6 µg/mL); in data set [3] (Salmonella enterica, TYPHI) it was 93.4 µM (≈ 31.3 µg/mL). Also, the MBC against S. aureus (Staphylococcus aureus) and in the data set on E. coli (Escherichia coli) was 186 µM (≈ 62.5 µg/mL) throughout. Besides, the “liver histological structure (H&E)” value in [1] was “normal histological structure”. Further, the “kidney histological structure (H&E)” value in data set [1] is listed as “histological structure similar to those of the control groups”. Further, the “antimicrobial activity (SAR grading)” value in data set [2] was “weaker antimicrobial potential”. Besides, the “kidney pathological changes (H&E)” value is recorded as “marked improved renal tissue” in the data set on S. typhi (high dose (3.8 mg/kg)) and “improved pathological changes” in the data set on S. typhi (low dose (1.9 mg/kg)). For the same molecule, the “liver pathological changes (H&E)” value in the data set with S. typhi (high dose (3.8 mg/kg)) is “marked improvement in the pathological changes”; in the data set with S. typhi (low dose (1.9 mg/kg)) it was “improved pathological changes”.
As to “N'-((3a,7a-dihydro-1H-indol-3-yl)methylene)-3,4-dimethoxybenzohydrazide [Compound 4h]”, the MIC in the data set with C. albicans MTCC183 (C. albicans (CA), read-out: MIC) is 386.80 µM; against A. baumanii ATCC 19606 (Acientobacter ATCC 19606 (A A)) it was 48.28 µM; in the data set on P. aeruginosa ATCC10145 (P. auriginosa (PA)), 193.40 µM; with E. faecalis ATCC 29212 (E. faecalis (EF)), 96.87 µM; in the data set on Acientobacter sensitive (Acientobacter sensitive (AS)) it was 24.17 µM; against Aciento MDR (Aciento MDR (AM)) it was 193.40 µM. Moreover, the MIC with E. coli ATCC 25922 (E. coli (EC)) is 48.28 µM; against S. aureus ATCC 6538 (S. aureus (SA)), 5.88 µM; in [3] (S. typhi (ST)), 12.07 µM. For the same molecule, the minimum bactericidal concentration (MBC) in the data set on S. aureus (S. aureus) and in the data set on E. coli (E. coli) was 96.87 µM throughout. Also, the “liver histological structure (H&E)” value in data set [1] is reported as “normal histological structure”. Further, the “kidney histological structure (H&E)” value in data set [1] is “histological structure similar to those of the control groups”. Besides, the “Average MIC” value in [2] (average over nine microbial species) was 112.13 µM. Moreover, the “antimicrobial activity (SAR grading)” value in [2] is “weaker antimicrobial potential”. The figures for the “kidney pathological changes (H&E)” value with S. typhi (high dose (3.8 mg/kg)) and in the data set with S. typhi (low dose (1.9 mg/kg)) were “marked improved renal tissue” and “improved pathological changes”, respectively. Moreover, the “liver pathological changes (H&E)” value with S. typhi (high dose (3.8 mg/kg)) was “marked improvement in the pathological changes”; in the data set with S. typhi (low dose (1.9 mg/kg)), “improved pathological changes”.
